In patent US4515793A, “Phenylpiperazines which are useful in the treatment of schistosomiasis” (Edna McConnell Clark Foundation, priority 1983, dated 1985):

Tested on: S. mansoni
Assay: antischistosomal activity in mice (live worm burden, single oral dose)
Type: in vivo, S. mansoni (host: CD1 white female mice)
Conditions: Schistosoma mansoni, single oral dose, read-out: % Reduction Live Worm Burden; for inhibition in vivo at 40 mg/kg / inhibition in vivo at 125 mg/kg / inhibition in vivo at 20 mg/kg: mice; for inhibition in vivo at 160 mg/kg: mice (footnote, 125 mg/kg column)
Method: Tests were conducted to determine the antischistosomal activity in mice and monkeys. The results of the mice tests are reported in Tables 1 to 4 along with the chemical identifications of the compounds synthesized and tested.
The mice tests were conducted as follows:
A. Preinfection Procedures: Purina Laboratory chow (Ralston-Purina) and water were given ad libitum. All mice were housed in hanging stainless steel cages, without bedding, five per cage. They were kept in a ward with an ambient temperature of 75° F. and a relative humidity of 50-55%. Therapeutic treatment was given on Day 40 post-infection.
B. Experimental Procedures: CD1 white female mice were exposed by the tail immersion method for 30 minutes to 80 individually counted S. mansoni cercariae (WRAIR laboratory strain). The cercariae were obtained from pools of no less than 25 Biophalaria glabrata snails. Each experiment consisted of 118 mice divided into infected/water treated and infected/vehicle-treated controls, and infected/drug-treated groups (two dose levels) for six compounds. Groups of 12 mice each were treated with a compound synthesized and provided by the Warner-Lambert Company, Ann Arbor, Mich. at two dose levels. At the same time, five mice were sacrificed to establish worm burdens as infection controls. Three weeks after treatment, all remaining mice were sacrificed and perfused. Gross pathology (liver and intestines) was noted and graded (0 to +3). Worm burdens were determined and the sex of the worms recorded. Following perfusions the liver and intestines were removed and examined for the presence of […] or dead worms. […] Drugs were administered orally in Emulphor EL.
C. Drug Treatment: Treatment consisted of a single oral dose. Each drug was give initially at two dose levels, 40 mg/kg and 125 mg/kg, SID×1.
D. Criteria Used to Evaluate Therapeutic Effectiveness:
Evaluation of activity was determined by examination of the animals at 23 to 28 days after treatment. The schistosomes remaining alive after treatment were counted in the perfusates of the hepatic portal system and in press preparation of the livers. In the same preparations, the relative numbers of dead and/or encapsulated (i.e., worms may or may not be dead) parasites and the relative degree of pathology were ascertained. The efficacy of each treatment was that percentage of the control infection represented by the difference between numbers of parasites recovered from control (H2 O+vehicle) and treated animals. Thus, % efficacy is: [formula]

Row | SMILES | inhibition in vivo at 40 mg/kg [%] | inhibition in vivo at 125 mg/kg [%] | inhibition in vivo at 20 mg/kg [%] | inhibition in vivo at 160 mg/kg [%]
1 | O=C(CN1CCN(c2ccc(CO)c(Cl)c2)CC1)c1ccc(Cl)cc1 [Cpd. 1] | 42 | 67 | – | –
2 | O=C(CN1CCN(c2ccc(CO)c(Cl)c2)CC1)c1ccc(F)cc1 [Cpd. 2] | 19 | 61 | – | –
3 | O=C(CN1CCN(c2ccc(CO)c(Cl)c2)CC1)c1ccc(Cl)cc1Cl [Cpd. 3] | 81 | 94 | 62 | –
4 | O=C(CN1CCN(c2ccc(CO)c(Cl)c2)CC1)c1ccc(S(=O)(=O)N2CCCCC2)cc1 [Cpd. 4] | -10 | 66 | – | –
5 | O=C(CN1CCN(c2ccc(CO)c(Cl)c2)CC1)c1ccc([N+](=O)[O-])cc1 [Cpd. 5] | 74 | 98 | – | –
6 | O=C(CN1CCN(c2ccc(CO)c(Cl)c2)CC1)c1ccc(I)cc1 [Cpd. 6] | 62 | 83 | – | –
7 | O=C(CN1CCN(c2ccc(CO)c(Cl)c2)CC1)c1cccc([N+](=O)[O-])c1 [Cpd. 12, 2-[4-[3-chloro-4-(hydroxymethyl)phenyl]-1-piperazinyl]-1(3-nitrophenyl)ethanone] | 31 | 73 | – | –
8 | O=C(CN1CCN(c2ccc(CO)c(Cl)c2)CC1)c1ccc(Cl)c([N+](=O)[O-])c1 [Cpd. 14] | 56 | – | – | 99
9 | Nc1cccc(C(=O)CN2CCN(c3ccc(CO)c(Cl)c3)CC2)c1 [Cpd. 25, 2-[4-[3-Chloro-4-(hydroxymethyl)phenyl]-1-piperazinyl]-1-(3-aminophenyl)-ethanone] | -11 | 46 | – | –
10 | CSc1ccc(C(=O)CCN2CCN(c3ccc(CO)c(Cl)c3)CC2)cc1 [Cpd. 31] | 73 | 93 | – | –
11 | CS(=O)(=O)c1ccc(C(=O)CCN2CCN(c3ccc(CO)c(Cl)c3)CC2)cc1 [Cpd. 32] | 84 | 91 | 43 | –
12 | O=C(CCN1CCN(c2ccc(CO)c(Cl)c2)CC1)c1ccc(Cl)c([N+](=O)[O-])c1 [Cpd. 35] | 79 | 98 | – | –
13 | Nc1cc(C(=O)CCN2CCN(c3ccc(CO)c(Cl)c3)CC2)ccc1Cl [Cpd. 37] | 83 | 95 | 81 | –
14 | O=C(CCN1CCN(c2ccc(CO)c(Cl)c2)CC1)c1ccco1 [Cpd. 57] | 85 | 98 | 60 | –
15 | O=C(CCCN1CCN(c2ccc(CO)c(Cl)c2)CC1)c1cccs1 [Cpd. 58, 4-[4-[3-Chloro-4-(hydroxymethyl)phenyl]-1-piperazinyl]-1-(2-thienyl)-1-butanone] | 20 | 77 | – | –
16 | O=C(CCCN1CCN(c2ccc(CO)c(Cl)c2)CC1)c1ccc(Cl)cc1 [Cpd. 59, 1-(4-Chlorophenyl)-4-[4-[3-chloro-4-(hydroxymethyl)phenyl]-1-piperazinyl]-1-butanone] | 30 | 68 | – | –
17 | CC(O)(CN1CCN(c2ccc(CO)c(Cl)c2)CC1)c1ccc(Cl)cc1 (centres unmarked) [Cpd. 61] | 88 | 96 | 68 | –
18 | O=C(CN1CCN(c2ccc(CO)c(Cl)c2)CC1)c1ccc(C(=O)Oc2ccccc2)cc1 [compound 7] | -20 | 0 | – | –
19 | COc1ccc(C(=O)CN2CCN(c3ccc(CO)c(Cl)c3)CC2)c(OC)c1OC [compound 9] | 13 | 30 | – | –
20 | COc1cc(C(=O)CN2CCN(c3ccc(CO)c(Cl)c3)CC2)cc(OC)c1OC [compound 10] | -23 | – | – | 13
21 | CC(C)(C)c1ccc(C(=O)CN2CCN(c3ccc(CO)c(Cl)c3)CC2)cc1 [compound 11] | 16 | – | – | 59
